Laboratory results published in patent EP4567035A1, “NOVEL COMPOUND AS HYPOXIA-INDUCIBLE FACTOR 1(HIF-1) INHIBITOR OR VASCULAR ENDOTHELIAL GROWTH FACTOR (VEGF) INHIBITOR, AND PHARMACEUTICAL COMPOSITION COMPRISING SAME” (Nextgen Bioscience Co., Ltd., priority 2022, dated 2024).
Read-outs that look alike come from different tables or passages of the source.

Legend:
[1] = test system: VEGF; assay: Evaluation of VEGF protein secretion level (Human VEGF ELISA) in ARPE-19 cell medium under hypoxic conditions; assay type: cell-based
Outline: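 Human ARPE-19 cells were pretreated 2 h with compound (0.1 nM–10 µM, in DMEM/F12 with 1% FBS), then held 24 h in hypoxia (1% O2, 5% CO2). Secreted VEGF in the supernatant was quantified by ELISA (A450). The value is the concentration range giving ≥50% VEGF reduction versus untreated control.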

[2] = biological target: T1, HIF-1α (Homo sapiens, UniProt Q16665); assay: Analysis of HIF-1α protein expression (Western blot) in ARPE-19 cells under mixed hypoxic condition; assay type: cell-based; details: concentration range at which HIF-1α expression is reduced by 50% vs untreated control
T1 construct: endogenous in cells; host or cells: ARPE-19 (ATCC CRL-2302)
T1 sequence (Q16665 whole entry): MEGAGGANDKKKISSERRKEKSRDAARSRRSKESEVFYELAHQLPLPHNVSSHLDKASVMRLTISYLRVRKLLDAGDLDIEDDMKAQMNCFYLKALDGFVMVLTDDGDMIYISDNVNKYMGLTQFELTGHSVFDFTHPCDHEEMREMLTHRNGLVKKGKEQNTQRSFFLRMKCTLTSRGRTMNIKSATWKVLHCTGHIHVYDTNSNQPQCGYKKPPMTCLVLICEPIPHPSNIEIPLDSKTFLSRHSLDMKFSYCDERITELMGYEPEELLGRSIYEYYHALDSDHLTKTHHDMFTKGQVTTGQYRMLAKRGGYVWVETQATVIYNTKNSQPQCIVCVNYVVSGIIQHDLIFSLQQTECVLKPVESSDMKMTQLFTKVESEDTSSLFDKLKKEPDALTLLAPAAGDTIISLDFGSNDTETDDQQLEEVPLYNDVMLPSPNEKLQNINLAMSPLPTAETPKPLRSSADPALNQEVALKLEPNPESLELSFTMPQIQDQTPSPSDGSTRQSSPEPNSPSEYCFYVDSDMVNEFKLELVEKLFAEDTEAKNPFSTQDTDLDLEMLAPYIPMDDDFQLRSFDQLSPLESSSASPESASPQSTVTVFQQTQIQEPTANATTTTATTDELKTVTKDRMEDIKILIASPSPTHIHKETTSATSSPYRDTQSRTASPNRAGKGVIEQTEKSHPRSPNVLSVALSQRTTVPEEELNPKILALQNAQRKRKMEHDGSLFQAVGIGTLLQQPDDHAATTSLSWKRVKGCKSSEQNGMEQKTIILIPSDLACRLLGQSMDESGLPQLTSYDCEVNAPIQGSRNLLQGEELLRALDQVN
Outline: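 ARPE-19 cells were pretreated 16 h or 2 h with compound (0.1 nM–10 µM, serum-free DMEM/F12), then held 1 h or 24 h in mixed hypoxia (1% O2 plus CoCl2). HIF-1α was quantified by Western blot against β-actin; the concentration range giving ≥50% reduction vs untreated control was reported.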

[3] = ARPE-19 cells, pretreated 2 hours, 24 hours hypoxic conditions, secreted VEGF in medium supernatant by ELISA, concentration range reducing VEGF by 50% vs untreated control, read-out: IC50 VEGF
[4] = values marked * in the table, mixed hypoxic condition (1% oxygen + CoCl2) for 24 hours, read-out: IC50 HIF-1α, Hypoxia(24h)
[5] = mixed hypoxic condition (1% oxygen + CoCl2) for 1 hour, read-out: IC50 HIF-1α Hypoxia (1 hour)

Work on `O=C(NCc1cc(F)cc(-c2cnn(-c3cccc(F)c3)c2)c1)c1ncnc2nc(C3CCCC3)[nH]c12` [Example 46, 8-Cyclopentyl-N-(3-fluoro-5-(1-(3-fluorophenyl)-1H-pyrazol-4-yl)benzyl)-7H-purine-6-carboxamide] yielded an IC50 [1, 3] of 100 to 1000 nM and a DC50 [2, 4] of less than 100 nM.
For `O=C(NCc1cc(F)cc(Nc2ccsc2)c1)c1ncnc2nc(C3CCCC3)[nH]c12` [Example 130, 8-Cyclopentyl-N-(3-fluoro-5-(thiophen-3-ylamino)benzyl)-7H-purine-6-carboxamide], the IC50 [1, 3] was 100 to 1000 nM and the DC50 [2, 4] was less than 100 nM.
`O=C(NCc1cc(F)cc(-c2cnn(-c3ccncc3)c2)c1)c1ncnc2nc(C3CCCC3)[nH]c12` [Example 12, 8-Cyclopentyl-N-(3-fluoro-5-(1-(pyridin-4-yl)-1H-pyrazol-4-yl)benzyl)-7H-purine-6-carboxamide] was tested, and the IC50 ([1]; ARPE-19 cells, pretreated 2 hours, 24 hours hypoxic conditions, ELISA, read-out: concentration at which the secreted VEGF protein level was suppressed to less than 50%) was less than 100 nM, the IC50 [1, 3] was less than 100 nM and the IC50 ([1]; Experimental Example 2 (HIF-1α Western blot), read-out: concentration at which the expression level of VEGF was suppressed to less than 50%) was less than 100 nM. It also gave a DC50 [2, 5] of less than 100 nM.
Work on `O=C(NCc1cc(F)cc(-c2cnn(-c3ccc(F)cc3)c2)c1)c1ncnc2nc(C34CCC(C3)C4)[nH]c12` [Example 115, 8-(Bicyclo[2.1.1]hexan-1-yl)-N-(3-fluoro-5-(1-(4-fluorophenyl)-1H-pyrazol-4-yl)benzyl)-7H-purine-6-carboxamide] yielded an IC50 [1, 3] of 100 to 1000 nM and a DC50 [2, 4] of 100 to 1000 nM.
`O=C(NCc1cc(F)cc(-c2cnn(-c3ccc(F)cc3)c2)c1)c1ncnc2nc(C3CC(F)C3)[nH]c12` (single isomer, unassigned) [102(B), N-(3-Fluoro-5-(1-(4-fluorophenyl)-1H-pyrazol-4-yl)benzyl)-8-(3-fluorocyclobutyl)-7H-purine-6-carboxamide] gave an IC50 [1, 3] of 100 to 1000 nM and a DC50 [2, 4] of 100 to 1000 nM.
Compound `O=C(NCc1cc(F)cc(-c2cnn(-c3ccc(F)c(F)c3)c2)c1)c1ncnc2nc(C3CCCC3)[nH]c12` [Example 60, 8-Cyclopentyl-N-(3-(1-(3,4-difluorophenyl)-1H-pyrazol-4-yl)-5-fluorobenzyl)-7H-purine-6-carboxamide] has an IC50 [1, 3] of 100 to 1000 nM and a DC50 [2, 4] of less than 100 nM.
`O=C(NCc1cc(F)cc(-c2cnn(-c3cncnc3)c2)c1)c1ncnc2nc(C3CCCC3)[nH]c12` [Example 32, 8-Cyclopentyl-N-(3-fluoro-5-(1-(pyrimidin-5-yl)-1H-pyrazol-4-yl)benzyl)-7H-purine-6-carboxamide] was tested, and the IC50 [1, 3] was 100 to 1000 nM and the DC50 [2, 5] was less than 100 nM.
With `CN(C)c1ccc(Nc2cc(F)cc(CNC(=O)c3ncnc4nc(C5CCCC5)[nH]c34)c2)cc1` [Example 18, 8-Cyclopentyl-N-(3-((4-(dimethylamino)phenyl)amino)-5-fluorobenzyl)-7H-purine-6-carboxamide] the IC50 [1, 3] was 100 to 1000 nM and the DC50 [2, 5] was less than 100 nM.
In the case of `O=C(NCc1cc(F)cc(-c2cnn(C3CCCC3)c2)c1)c1ncnc2nc(C3CCCC3)[nH]c12` [Example 138, 8-Cyclopentyl-N-(3-(1-cyclopentyl-1H-pyrazol-4-yl)-5-fluorobenzyl)-7H-purine-6-carboxamide], the IC50 [1, 3] is reported as 100 to 1000 nM and the DC50 [2, 4] is reported as less than 100 nM.
`O=C(O)c1cccc(-n2cc(-c3cc(F)cc(CNC(=O)c4ncnc5nc(C6CCCC6)[nH]c45)c3)cn2)c1` [Example 49, 3-(4-(3-((8-Cyclopentyl-7H-purine-6-carboxamido)methyl)-5-fluorophenyl)-1H-pyrazol-1-yl)benzoic acid] showed an IC50 [1, 3] of 1000 to 10000 nM and a DC50 [2, 5] of less than 100 nM.
Compound `O=C(NCc1cc(F)cc(-c2cnn(C3CCOC3)c2)c1)c1ncnc2nc(C3CCCC3)[nH]c12` (centres unmarked) [Example 140, 8-Cyclopentyl-N-(3-fluoro-5-(1-(tetrahydrofuran-3-yl)-1H-pyrazol-4-yl)benzyl)-7H-purine-6-carboxamide] has an IC50 [1, 3] greater than 10000 nM and a DC50 [2, 4] of less than 100 nM.
`O=C(NCc1cc(F)cc(-c2cnn(-c3ccc(C(F)(F)F)nc3)c2)c1)c1ncnc2nc(C3CCCC3)[nH]c12` [Example 44, 8-Cyclopentyl-N-(3-fluoro-5-(1-(6-(trifluoromethyl)pyridin-3-yl)-1H-pyrazol-4-yl)benzyl)-7H-purine-6-carboxamide] showed an IC50 [1, 3] of 100 to 1000 nM and a DC50 [2, 5] of less than 100 nM.
